Measured values from patent US7732424B2, “Purine derivatives and methods of use thereof” (Inotek Pharmaceuticals Corporation, priority 2005, dated 2010).
Like-named read-outs stand apart in the source and are kept apart here.

How the values were obtained:
[1] = target: T1, human recombinant A2A adenosine receptor (Homo sapiens, UniProt P29274); assay: Adenosine A2A receptor binding, displacement of [^3H]NECA in transfected CHO cells
T1 construct: expressed in transfected cells
Method: (§1) Membranes for radioligand binding experiments were prepared from fresh or frozen cells as described in Klotz et al., Naunyn-Schmiedeberg's Arch. Pharmacol., 357:1-9 (1998). The cell suspension was then homogenized in ice-cold hypotonic buffer (5 mM Tris/HCl, 2 mM EDTA, pH 7.4) and the resultant homogenate was spun for 10 minutes (4° C.) at 1,000 g. The membranes were then sedimented from the supernatant for 30 minutes at 100,000 g and resuspended in 50 mM Tris/HCl buffer pH 7.4 (for A3 adenosine receptors: 50 mM Tris/HCl, 10 mM MgCl2, 1 mM EDTA, pH 8.25), frozen in liquid nitrogen at a protein concentration of 1-3 mg/mL and stored at −80° C.
(§2) Nonspecific binding was determined in the presence of 100 μM R-PIA and 1 mM theophylline, respectively. For details see Klotz et al., Naunyn-Schmiedeberg's Arch. Pharmacol., 357:1-9, 1998. All binding data were calculated by non-linear curve fitting using the program SCTFIT (De Lean et al., Mol. Pharm. 1982, 21:5-16).

[2] = target: T2, human recombinant A3 adenosine receptor (Homo sapiens, UniProt P0DMS8); assay: Adenosine A3 receptor binding, displacement of [^3H]NECA in transfected HEK cells; conditions: displacement of specific [^3H]NECA binding, geometric mean
T2 construct: expressed in transfected cells
T2 sequence (P0DMS8 1-318): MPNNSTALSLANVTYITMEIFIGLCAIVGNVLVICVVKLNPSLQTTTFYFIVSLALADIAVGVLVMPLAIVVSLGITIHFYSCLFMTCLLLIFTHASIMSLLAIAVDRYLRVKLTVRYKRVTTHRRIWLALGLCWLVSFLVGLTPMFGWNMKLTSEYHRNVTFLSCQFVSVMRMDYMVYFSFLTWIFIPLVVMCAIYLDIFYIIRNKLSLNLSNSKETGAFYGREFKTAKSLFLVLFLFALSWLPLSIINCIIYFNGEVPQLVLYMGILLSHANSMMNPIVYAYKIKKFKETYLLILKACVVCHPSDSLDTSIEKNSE
Method: as §1, §2

male Sprague-Dawley rats = assay: Effect on core body temperature in rats; format: in vivo; set-up: Rectal Temperature: unit not given here; conditions: for Behavior / Rectal Temperature / Respiratory Rate / Respiration Rate: rat at 13° C., 15 mg/kg JV then 20 mg/mL at 1 mL/h
Method: Their rectal temperature, respiratory rate, and behavior were recorded following 5 min, 10 min, 20 min, 30 min, 1 h, 1.5 h, 2 h, 2.5 h, 3 h, 3.5 h, and 4 h.

[3] = system: New Zealand white rabbits; assay: Effect on intraocular pressure (IOP) in rabbits; format: in vivo, rabbit
Method: The effect of an illustrative Purine Derivative on intraocular pressure (IOP) was examined in New Zealand white rabbits. New Zealand white rabbits undergo a circadian change in intraocular pressure, such that lowest pressure values occur in the early morning and peak pressure values occur in the afternoon. […] Consistency of measurements is indicated by the fact the intraocular pressure at t=−23 hours and t=25 hours is essentially the same (see FIGS. 1-5).
One rabbit was administered with each each dose level. […] Thus, Compound I′-1 was administered when the level of intraocular pressure was low relative to other timepoints during the day and night.

[4] = target: human recombinant A1 adenosine receptor (Homo sapiens, UniProt P30542); assay: Adenosine A1 receptor binding, displacement of [^3H]CCPA in transfected CHO cells
Method: as §1, §2

T1 sequence (P29274 whole entry): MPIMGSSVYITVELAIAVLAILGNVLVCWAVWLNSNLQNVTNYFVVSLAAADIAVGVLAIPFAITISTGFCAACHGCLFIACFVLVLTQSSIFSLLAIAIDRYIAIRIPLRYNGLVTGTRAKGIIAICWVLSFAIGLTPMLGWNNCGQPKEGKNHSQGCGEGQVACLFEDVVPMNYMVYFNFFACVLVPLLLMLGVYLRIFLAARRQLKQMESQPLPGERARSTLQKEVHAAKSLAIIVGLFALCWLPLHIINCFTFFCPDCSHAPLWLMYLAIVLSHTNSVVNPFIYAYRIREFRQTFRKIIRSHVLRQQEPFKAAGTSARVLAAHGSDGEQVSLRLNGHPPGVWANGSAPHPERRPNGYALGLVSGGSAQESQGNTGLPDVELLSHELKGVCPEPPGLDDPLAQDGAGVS
human recombinant A1 adenosine receptor, sequence (P30542 whole entry): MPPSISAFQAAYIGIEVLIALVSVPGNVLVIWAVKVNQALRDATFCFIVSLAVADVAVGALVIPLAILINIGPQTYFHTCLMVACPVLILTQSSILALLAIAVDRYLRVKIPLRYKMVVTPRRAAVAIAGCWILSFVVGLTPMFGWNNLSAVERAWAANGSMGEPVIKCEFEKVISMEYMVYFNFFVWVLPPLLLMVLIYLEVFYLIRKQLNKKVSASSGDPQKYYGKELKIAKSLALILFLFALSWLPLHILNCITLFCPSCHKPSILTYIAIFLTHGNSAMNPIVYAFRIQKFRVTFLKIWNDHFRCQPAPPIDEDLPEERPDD

How did the Ki ([1]; displacement of specific [^3H]NECA binding, CHO cells, geometric mean, read-out: Ki(A2A)) turn out when `OC[C@H]1O[C@@H](n2cnc3c(NC4CCCC4)nc(Cl)nc32)[C@H](O)[C@@H]1O` [[^3H]CCPA, 2-chloro-N^6-[^3H]cyclopentyladenosine, reference compound] was run?
The Ki was 2.27 µM.

Which results are given for `OC[C@H]1O[C@@H](n2cnc3c(NC4(CO)CCCC4)ncnc32)[C@H](O)[C@@H]1O` [I′-1]?
Ki [2]: 7.7 µM; Behavior (male Sprague-Dawley rats; Animal #1, 0 min): normal; Rectal Temperature (male Sprague-Dawley rats; Animal #1, 0 min): 38; Respiratory Rate (male Sprague-Dawley rats; Animal #1, 0 min): 210 min⁻¹; Behavior (male Sprague-Dawley rats; Animal #1, 5 min): sleep/; Rectal Temperature (male Sprague-Dawley rats; Animal #1, 5 min): 38; Behavior (male Sprague-Dawley rats; Animal #1, 10 min): sleep/; Rectal Temperature (male Sprague-Dawley rats; Animal #1, 10 min): 37; Respiratory Rate (male Sprague-Dawley rats; Animal #1, 10 min): 69 min⁻¹; Behavior (male Sprague-Dawley rats; Animal #1, 20 min): sleep; Rectal Temperature (male Sprague-Dawley rats; Animal #1, 20 min): 36; Respiratory Rate (male Sprague-Dawley rats; Animal #1, 20 min): 66 min⁻¹; Behavior (male Sprague-Dawley rats; Animal #1, 30 min): sleep; Rectal Temperature (male Sprague-Dawley rats; Animal #1, 30 min): 36; Respiratory Rate (male Sprague-Dawley rats; Animal #1, 30 min): 75 min⁻¹; Behavior (male Sprague-Dawley rats; Animal #1, 1 h): sleep; Rectal Temperature (male Sprague-Dawley rats; Animal #1, 1 h): 32; Respiration Rate (male Sprague-Dawley rats; Animal #1, 1 h): 42 min⁻¹; Behavior (male Sprague-Dawley rats; Animal #1, 1.5 h): sleep; Rectal Temperature (male Sprague-Dawley rats; Animal #1, 1.5 h): 29; Respiration Rate (male Sprague-Dawley rats; Animal #1, 1.5 h): 45 min⁻¹; Behavior (male Sprague-Dawley rats; Animal #1, 2 h): sleep; Rectal Temperature (male Sprague-Dawley rats; Animal #1, 2 h): 27; Respiration Rate (male Sprague-Dawley rats; Animal #1, 2 h): 54 min⁻¹; Behavior (male Sprague-Dawley rats; Animal #1, 2.5 h): sleep; Rectal Temperature (male Sprague-Dawley rats; Animal #1, 2.5 h): 25; Respiration Rate (male Sprague-Dawley rats; Animal #1, 2.5 h): 51 min⁻¹; Behavior (male Sprague-Dawley rats; Animal #1, 3 h): sleep; Rectal Temperature (male Sprague-Dawley rats; Animal #1, 3 h): 24; Respiration Rate (male Sprague-Dawley rats; Animal #1, 3 h): 42 min⁻¹; Behavior (male Sprague-Dawley rats; Animal #1, 3.5 h): sleep; Rectal Temperature (male Sprague-Dawley rats; Animal #1, 3.5 h): 23; Respiration Rate (male Sprague-Dawley rats; Animal #1, 3.5 h): 42 min⁻¹; Behavior (male Sprague-Dawley rats; Animal #1, 4 h): sleep; Rectal Temperature (male Sprague-Dawley rats; Animal #1, 4 h): 21; Respiration Rate (male Sprague-Dawley rats; Animal #1, 4 h): 42 min⁻¹; Behavior (male Sprague-Dawley rats; Animal #2, 0 min): normal; Rectal Temperature (male Sprague-Dawley rats; Animal #2, 0 min): 39; Respiratory Rate (male Sprague-Dawley rats; Animal #2, 0 min): 220 min⁻¹; Behavior (male Sprague-Dawley rats; Animal #2, 5 min): normal; Rectal Temperature (male Sprague-Dawley rats; Animal #2, 5 min): 39; Respiratory Rate (male Sprague-Dawley rats; Animal #2, 5 min): 99 min⁻¹; Behavior (male Sprague-Dawley rats; Animal #2, 10 min): sleep/; Rectal Temperature (male Sprague-Dawley rats; Animal #2, 10 min): 38; Respiratory Rate (male Sprague-Dawley rats; Animal #2, 10 min): 84 min⁻¹; Behavior (male Sprague-Dawley rats; Animal #2, 20 min): sleep/; Rectal Temperature (male Sprague-Dawley rats; Animal #2, 20 min): 37; Respiratory Rate (male Sprague-Dawley rats; Animal #2, 20 min): 57 min⁻¹; Behavior (male Sprague-Dawley rats; Animal #2, 30 min): sleep/; Rectal Temperature (male Sprague-Dawley rats; Animal #2, 30 min): 37; Respiratory Rate (male Sprague-Dawley rats; Animal #2, 30 min): 51 min⁻¹; Behavior (male Sprague-Dawley rats; Animal #2, 1 h): sleep; Rectal Temperature (male Sprague-Dawley rats; Animal #2, 1 h): 33; Respiration Rate (male Sprague-Dawley rats; Animal #2, 1 h): 36 min⁻¹; Behavior (male Sprague-Dawley rats; Animal #2, 1.5 h): sleep; Rectal Temperature (male Sprague-Dawley rats; Animal #2, 1.5 h): 30; Respiration Rate (male Sprague-Dawley rats; Animal #2, 1.5 h): 36 min⁻¹; Behavior (male Sprague-Dawley rats; Animal #2, 2 h): sleep; Rectal Temperature (male Sprague-Dawley rats; Animal #2, 2 h): 28; Respiration Rate (male Sprague-Dawley rats; Animal #2, 2 h): 36 min⁻¹; Behavior (male Sprague-Dawley rats; Animal #2, 2.5 h): sleep; Rectal Temperature (male Sprague-Dawley rats; Animal #2, 2.5 h): 27; Respiration Rate (male Sprague-Dawley rats; Animal #2, 2.5 h): 30 min⁻¹; Behavior (male Sprague-Dawley rats; Animal #2, 3 h): sleep; Rectal Temperature (male Sprague-Dawley rats; Animal #2, 3 h): 26; Respiration Rate (male Sprague-Dawley rats; Animal #2, 3 h): 27 min⁻¹; Behavior (male Sprague-Dawley rats; Animal #2, 3.5 h): sleep; Rectal Temperature (male Sprague-Dawley rats; Animal #2, 3.5 h): 25; Respiration Rate (male Sprague-Dawley rats; Animal #2, 3.5 h): 24 min⁻¹; Behavior (male Sprague-Dawley rats; Animal #2, 4 h): sleep; Rectal Temperature (male Sprague-Dawley rats; Animal #2, 4 h): 25; Respiration Rate (male Sprague-Dawley rats; Animal #2, 4 h): 27 min⁻¹; Effect on core body temperature (conclusion) (male Sprague-Dawley rats; rats, Tables 3A and 3B): reduces an animal's core body temperature; Survival of the animals (male Sprague-Dawley rats; two rats, 15 mg/kg JV then 20 mg/mL at 1 mL/h for 4 hours): Both animals survived the experiment; Ki [1]: 28.1 µM; Effect on intraocular pressure (conclusion) ([3]; FIGS. 1-5): reduces an animal's intraocular pressure; Time of recovery of intraocular pressure values to normal levels ([3]; administered concentration 0.3 mg/mL (FIG. 1)): ~6 h; Time of recovery of intraocular pressure values to normal levels ([3]; administered concentration 30 mg/mL (FIG. 5)): > 7 h; Intraocular pressure course after administration ([3]; one drop to one eye at t=0 hours, FIGS. 1-5): the intraocular pressure did not increase to the normal day values; Eye irritation ([3]; topical ocular, 0.3-30.0 mg/mL): No eye irritation was observed in any animal; Ki [4]: 0.00677 µM

For `OC[C@H]1O[C@@H](n2cnc3c(NC4(CO)CCCC4)nc(Cl)nc32)[C@H](O)[C@@H]1O` [I′-19], which Ki [2] is on record?
Its Ki is 5.96 µM.

And the Ki [1]?
Its Ki is 24 µM.

And the Ki [4]?
Its Ki is 0.00647 µM.
